Values of other authors in patent US6900203B2, “Optically active fluorinated vasoconstrictors, methods for making them, and anesthetic formulations comprising them” (Polium Technologies, Inc., priority 2002, dated 2005).
Read-outs that look alike come from different tables or passages of the source.

Tests used:
[1] = test system: α2/β adrenergic receptors
[2] = test system: α1/β adrenergic receptors
[3] = biological target: α2-receptors
[4] = biological target: β2 (Homo sapiens, UniProt P07550); conditions: read-out: Receptor affinity β2
[5] = biological target: α1-receptors; conditions: read-out: Receptor affinity α1
[6] = biological target: β1 (Homo sapiens, UniProt P08588); conditions: read-out: Receptor affinity β1
[7] = biological target: α-receptors; conditions: order of magnitude

β1, sequence (P08588 whole entry): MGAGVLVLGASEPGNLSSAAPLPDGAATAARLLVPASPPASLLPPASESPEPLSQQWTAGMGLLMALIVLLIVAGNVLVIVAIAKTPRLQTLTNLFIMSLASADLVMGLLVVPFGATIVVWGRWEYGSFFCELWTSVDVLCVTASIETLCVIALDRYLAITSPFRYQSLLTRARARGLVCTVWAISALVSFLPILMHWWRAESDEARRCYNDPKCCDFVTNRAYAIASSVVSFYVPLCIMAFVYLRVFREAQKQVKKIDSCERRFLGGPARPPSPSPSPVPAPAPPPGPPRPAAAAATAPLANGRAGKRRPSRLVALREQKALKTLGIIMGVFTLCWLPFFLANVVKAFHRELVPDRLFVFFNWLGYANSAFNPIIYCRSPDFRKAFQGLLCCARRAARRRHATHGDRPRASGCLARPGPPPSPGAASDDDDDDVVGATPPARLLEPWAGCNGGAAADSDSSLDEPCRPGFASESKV
β2, sequence (P07550 whole entry): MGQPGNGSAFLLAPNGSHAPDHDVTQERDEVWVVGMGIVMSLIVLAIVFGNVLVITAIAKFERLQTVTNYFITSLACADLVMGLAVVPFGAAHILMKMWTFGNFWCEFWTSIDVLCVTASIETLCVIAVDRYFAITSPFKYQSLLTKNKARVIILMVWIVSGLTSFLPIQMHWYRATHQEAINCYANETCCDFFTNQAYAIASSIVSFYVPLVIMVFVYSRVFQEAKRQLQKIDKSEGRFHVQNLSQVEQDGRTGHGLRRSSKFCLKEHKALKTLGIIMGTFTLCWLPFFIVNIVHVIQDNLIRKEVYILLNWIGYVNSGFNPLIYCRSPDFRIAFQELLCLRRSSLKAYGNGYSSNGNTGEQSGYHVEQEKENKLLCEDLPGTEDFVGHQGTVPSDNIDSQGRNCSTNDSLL

| SMILES | α2/β selectivity [1] [fold] | α1/β selectivity [2] | Ki ([3]; read-out: Receptor affinity α2) [µM] | Ki [4] [µM] | Ki [5] [µM] | Ki [6] [µM] | binding constants with α-receptors [7] | Ki ([3]; order of magnitude, read-out: binding constant with respect to α2-receptors) [µM] |
| --- | --- | --- | --- | --- | --- | --- | --- | --- |
| CNCC(O)c1cc(O)ccc1F (stereo not shown) [6F-phenylephrine] | 780 | 86-140 fold |  |  |  |  |  |  |
| CNC[C@H](O)c1ccc(O)c(O)c1F [(R)-2F-epinephrine] |  |  | 0.067 ± 0.003 | 0.11 ± 0.03 | ~25 | 0.56 ± 0.03 |  |  |
| CNC[C@@H](O)c1ccc(O)c(O)c1F [(S)-2F-epinephrine] |  |  | 0.053 ± 0.001 | ~25 | ~40 | ~150 |  |  |
| CNC[C@@H](O)c1ccc(O)c(O)c1 [(S)-epinephrine] |  |  | 0.045 ± 0.003 |  | ~20 |  |  |  |
| CNC[C@H](O)c1cccc(O)c1 [(R)-phenylephrine, 2-methylamino-1R-(3-hydroxyphenyl)ethanol] | 33 | 2-5 fold |  |  |  |  | on the order of several |  |
| CNC[C@H](O)c1ccc(O)c(O)c1 [(R)-epinephrine] |  |  | 0.013 ± 0.002 |  |  |  |  | ~0.01 |
| CNC[C@@H](O)c1cc(O)c(O)cc1F [(S)-6F-epinephrine] |  |  | 0.078 ± 0.001 | ~90 | ~70 | ~400 |  |  |
| CNC[C@H](O)c1cc(O)c(O)cc1F [(R)-6F-epinephrine, 2-methylamino-1R-[(3,4-dihydroxy-6-fluoro)-phenyl]ethanol] |  |  | 0.013 ± 0.002 | 38 ± 7 | 2.5 ± 0.1 | ~100 |  |  |
